This data set is described as follows: Human HepG2 cell viability assay in 384 well format. In kind it is toxicity, cell-based. Set-up: dose 125 nL, time 70.5 hour; concentration not given beside the values. The note with it: HepG2 cells, read-out: Inhibition.

Molecules are shown by their SMILES.

For the compound `CC(C)[C@H](NS(C)(=O)=O)C(=O)NCc1cc(-c2ccco2)nn1C`, the cytotoxicity at 70.5 h was 7.38%.
To `CN(CCO)c1ncc(-c2ccc(NC(=O)[C@@H]3CCCCN3)cc2)cn1` belongs -1.72%.
The result for `CC[C@@H](C)[C@@H](N)C(=O)Nc1cccc(-c2cnc(N(C)CCO)nc2)c1` reads -6.3%; that for `CNc1nc2c(s1)C(=O)CN(C(=O)[C@@H](N)Cc1cccc(OC)c1)C2`, -5.78%; that for `CC[C@H](C)[C@H](N)C(=O)N1CC(=O)c2sc(NCc3ccccc3)nc2C1`, 7.34%.
The result for `CC[C@H](C)[C@H](N)C(=O)Nc1nc(-c2cnc(N3CCOCC3)nc2)cs1` reads -1.59%.
For `CC(C)[C@H](NS(C)(=O)=O)C(=O)NCc1cc(-c2cccc(Cl)c2)nn1C`, the cytotoxicity at 70.5 h amounted to 6.72%.
Take `Cc1[nH]c2ccccc2c1-c1ccnc(NC[C@H](O)CO)n1`: the cytotoxicity at 70.5 h amounted to 26.8%.
To `CC[C@H](C)Nc1nccc(-c2cnc3sc(C)c(C)n3c2=O)n1` belongs 23.3%.
To `Cc1csc2ncc(-c3ccnc(N4CCN(C)CC4)n3)c(=O)n12` belongs 24.1%; to `CN1CCCN(c2nccc(-c3c[nH]nc3C3CCCCC3)n2)CC1`, -3.95%; to `Cc1ncc(-c2ccnc(N3CCCCCC3)n2)c(-c2cccnc2)n1`, -10.6%.
With `CC(C)[C@H]1COC(=O)N1Cc1nncn1C(C)C`, the cytotoxicity at 70.5 h is -7.29%.
`CCCOC(=O)N1CCn2nc(-c3nc4ccccc4n3C)cc2C1`: the cytotoxicity at 70.5 h is -5.25%.
To `CCNc1ncc(CN2C[C@@H](CN3CCC(CO)CC3)[C@@H](CO)C2)cn1` belongs -2.73%; to `CN1CC2(CCN(C(=O)COc3ccc(Cl)cc3Cl)CC2)OC1=O`, 14.5%; to `c1ccc(-c2nc(CCNc3nnc(C4CCC4)o3)no2)cc1`, 15.9%.
For the compound `COCC(=O)Nc1ccccc1Sc1c(C)n[nH]c1C`, the cytotoxicity at 70.5 h amounted to 25.1%.
`CN(C)CCCN1CC2(CCN(C3CCCOC3)CC2)OC1=O` (centres undefined): the cytotoxicity at 70.5 h is -6.54%.
To `CC(C)(C)NC(=O)CN1CCCC(c2ccc(C(=O)O)cc2)C1` (centres undefined) belongs 0.492%; to `CCCn1cc(-c2ccnc(NC3CCc4ccccc4C3)n2)c(C)n1` (centres undefined), 19.3%; to `CN(Cc1ccccn1)c1nccc(N2CCN[C@H]3CS(=O)(=O)C[C@H]32)n1`, 8.37%.
Take `COc1cncc(-n2ccnc2-c2ccc(C(=O)O)s2)c1`: the cytotoxicity at 70.5 h is -10%.
The result for `C[C@@H]1CN(C(=O)c2nc3sccn3c2-c2ncc[nH]2)C[C@H](C)O1` reads -7.22%.
To `Cc1cc(=O)[nH]c(NCCNC(=O)c2ccccc2N2CCCC2)n1` belongs 32.3%; to `O=S1(=O)C[C@@H]2[C@H](C1)N(Cc1ncc[nH]1)CCN2C/C=C/c1ccccc1`, -7.45%; to `COc1ccc(OC)c(-n2cnnc2C)c1`, -3.42%.
Regarding `COc1cc(C(=O)N(C)C(C)Cc2cc(C)ccn2)ccn1` (centres undefined), the cytotoxicity at 70.5 h came to 25.8%.
The result for `CCn1c(CC2CCN(S(=O)(=O)Cc3ccccc3)CC2)nn(C)c1=O` reads -9.61%; that for `Cc1nsc(NC(=O)NC2(CN3CCCCC3)CCCCC2)n1`, -9.47%.
On to `CC(C)OCCNC(=O)C1CCC(=O)N(C2CCCC2)C1` (centres undefined), for which the cytotoxicity at 70.5 h was -4.22%.
To `CCC(CO)N(Cc1cccs1)C(=O)Cc1ccncc1` (centres undefined) belongs -8.11%; to `COc1ccc(CCN2C(=O)O[C@@H]3CN(C)C[C@@H]32)cc1`, -10.7%.
To `CCN(CCO)Cc1cn(-c2cccc(F)c2)nc1-c1ccc(C)o1` belongs -14.6%.
The result for `O=S1(=O)CCC(n2nc(Cc3cccs3)nc2-c2cnccn2)C1` (centres undefined) reads 0.418%; that for `COc1cccc2ccc(N3CCC(O)(c4ccc(C)cn4)CC3)nc12`, -21.5%; that for `Cc1cc(CN2CCN(C(=O)C3CCC3)[C@@H]3CS(=O)(=O)C[C@@H]32)ccc1F`, 1.76%.
On to `COc1ccccc1C(=O)N1CCN(C(=O)CCn2ccnc2)CC1`, for which the cytotoxicity at 70.5 h was -5.01%.
The result for `CC(NC(=O)c1cc2n(n1)CCCN(C)C2)c1cn2ncsc2n1` (centres undefined) reads -7.44%; that for `CSCC[C@@H](CO)Nc1ccc(-c2nc(C3CC3)no2)cn1`, -3.18%; that for `CCn1ccnc1CN1CCCC(CO)(CCCc2ccccc2)C1` (centres undefined), -0.875%.
The result for `NC(=O)CCn1cc(CNCCCc2ccncc2)c2ccccc21` reads -3.77%; that for `Cc1nc(-c2cccnc2)ncc1C(=O)N1CCC(c2ncc[nH]2)CC1`, -3.5%; that for `COC(=O)c1cc(OCC2CCC2)cc(C(=O)N[C@H]2CCCC[C@@H]2O)c1`, -8.47%.
As to `COC1CCCOC12CCN(C(=O)NCc1ccco1)CC2` (centres undefined), the cytotoxicity at 70.5 h is -1.17%.
Turning to `COc1ccc(CNC(=O)Cc2csc(C(C)=O)c2)cc1`, the cytotoxicity at 70.5 h is -8.65%.
Turning to `CC(C)n1cnnc1Cn1ccc2ncccc2c1=O`, the cytotoxicity at 70.5 h came to 1%.
The result for `CCCN1CCN(C(=O)c2ccc(Cl)cn2)[C@H]2CS(=O)(=O)C[C@H]21` reads -10.4%.
The result for `CN(Cc1ccc(-n2cccn2)cc1)C[C@@H]1CCCN2CCCC[C@H]12` reads 24.9%; that for `CN1CCC(C(=O)NCCC2CN(c3cnn(C)c(=O)c3)CCO2)CC1` (centres undefined), -7.81%.
As to `c1cc2c(cc1-c1noc3c1CN(C1CCC1)CC3)OCO2`, the cytotoxicity at 70.5 h was 1.77%.
The result for `CC(C)N1CCCC(C(=O)NCc2noc(Cc3ccccc3)n2)C1` (centres undefined) reads 8.23%; that for `Cc1cc(C(=O)N2CCc3c(nc(-c4ccncc4)[nH]c3=O)C2)no1`, 2.99%; that for `Cc1ccc(NC(=O)N2CCCC(O)(CO)CC2)cc1Cl` (centres undefined), -4.85%.
The result for `CC(C)CCN1CCNC(=O)C1CC(=O)NCCc1cc(O)ncn1` (centres undefined) reads -11%; that for `CCC1CN(Cc2nnc(C(C)C)o2)CCC(=O)N1Cc1ccccc1` (centres undefined), -10.7%; that for `CN(Cc1cnccn1)CC1CCOc2ccccc2C1` (centres undefined), -12.2%.
`CCc1cnc(N)nc1NCCC(=O)NC1CCCCC1`: the cytotoxicity at 70.5 h was -25.4%.
To `O=C(O)[C@@H]1CN(Cc2ccc3nsnc3c2)C[C@H]1c1cccnc1` belongs 1.8%; to `O=C(C1CC1)N1C[C@H]2CNC[C@@]2(C(=O)NCCCc2ccccc2)C1`, -1.55%.
`N#Cc1cccc(CN2C(=O)C3(CCNCC3)Nc3ccccc32)c1`: the cytotoxicity at 70.5 h was 13.4%.
The result for `Cc1ncnc(N2CCCN(c3nc4ccccc4s3)CC2)c1C` reads 7.7%; that for `Cc1ncsc1CN1CCN(C)C2(CCC(=O)N(CCO)CC2)C1` (centres undefined), 3.92%.
The result for `COc1cc(-c2cc(C3CCOC3)c(C#N)c(N)n2)ccc1O` (centres undefined) reads -6.12%; that for `COc1ccccc1[C@@H]1CN(Cc2csc(C(C)=O)c2)C[C@H]1C(=O)O`, -3.94%; that for `COc1cccc(Cn2c(C)c(C)oc2=O)c1OC`, 1.78%.
To `NC(=O)COc1ccc(CN2CCC(O)(CN3CCCCC3)C2)cc1Cl` (centres undefined) belongs -12.1%; to `Cc1ncsc1CCN(C)C(=O)c1ccc(CN2CCCCC2)cc1`, 0.585%.
As for `CNC(=O)c1ccnc(N2CCCC(COc3cccc(C)c3)C2)c1` (centres undefined), the cytotoxicity at 70.5 h is -20.4%.
The result for `Cc1n[nH]c(C)c1C(N)C(=O)NCCc1csc(C(C)C)n1` (centres undefined) reads -11.3%.
To `COc1ccc(C2(C(=O)N3C[C@@H](C(=O)O)[C@H](C(C)C)C3)CC2)cc1` belongs -6.04%; to `O=C(CCCn1cncn1)N1CCC2(CCCN(CC3CC3)C2=O)C1` (centres undefined), 18.3%; to `COc1ccc(NC(=O)N2CCC3(CC2)NC(=O)CC3C(=O)O)cc1Cl` (centres undefined), 13.1%.
Consider `CC(C)(C)c1ncc(C(=O)N2CCC(N3CCSCC3)CC2)c(O)n1`, for which the cytotoxicity at 70.5 h is -7.4%.
Consider `Cn1cc(CN(C(=O)C2COc3ccccc3C2)C2CC2)cn1` (centres undefined), for which the cytotoxicity at 70.5 h was -9.16%.
Turning to `CCn1cc(-c2cc(-c3cc(CN(C)C)cs3)nc(N)c2C#N)c(C)n1`, the cytotoxicity at 70.5 h was -6.34%.
To `CN1CCCC(CNS(=O)(=O)N2CCc3ccccc3C2)C1` (centres undefined) belongs -10.7%; to `CN(C)S(=O)(=O)N1CC[C@]2(O)CCN(c3cc(C#N)ccn3)C[C@@H]2C1`, -7.65%.
For the compound `O=C(NCCc1cscn1)c1coc(CN2CCOCC2)c1`, the cytotoxicity at 70.5 h was -8.02%.
The result for `COCc1ncc(CN2C[C@@H](C(=O)O)[C@H](C(C)C)C2)cn1` reads 9.21%; that for `CCOc1ccc(-n2nc(C)c(CC(C)=O)c2C)cc1C(N)=O`, -2.04%; that for `CC(C)c1cc(NCC2(Cn3cccn3)CC2)nc(N)n1`, -0.462%.
The result for `CCn1ccnc1-c1nccn1-c1ccccc1CN1CCOCC1` reads -8.91%; that for `CC(C)Cn1cncc1CNC(=O)c1cccc(-n2cnnc2)c1`, 8.85%; that for `Cc1cc(CN2C[C@H]3CC[C@@H]2CN(C2Cc4ccccc4C2)C3)on1`, 3.93%.
The result for `CCc1ccc(C(=O)N2CCC3(CCC(=O)N(CCN(C)C)C3)CC2)[nH]1` reads -1.77%; that for `O=C(NCC(O)c1cccc(O)c1)C1CCN(C2CCCCC2)CC1` (centres undefined), -11.8%.
In the case of `Cc1cc2[nH]c(=O)oc2cc1S(=O)(=O)N1C[C@@H](N(C)C)[C@H](C(C)C)C1`, the cytotoxicity at 70.5 h was -10.7%.
The result for `CCN(CC)C(=O)[C@@H]1C[C@H](N)CN1c1noc(-c2ccccc2)n1` reads -3.04%.
With `CC(C)N(CCO)C(=O)C1CCC(=O)N(CCc2ccc(Cl)cc2)C1` (centres undefined), the cytotoxicity at 70.5 h is -1.21%.
To `COc1ccc(CN(CC2CCCO2)c2nc3c(s2)c(C)nn3C)cc1` (centres undefined) belongs 41.8%; to `CC(C)Cc1cc(C(=O)NC(C)(C)c2nnc(N)s2)n(C)n1`, -6.76%; to `CN(C)CC1(O)CCCN(C(=O)Cn2nc3ccccc3n2)CC1` (centres undefined), 11.1%.
`CNc1ncc(-c2csc(NC(=O)C[C@H]3COCCN3)n2)cn1`: the cytotoxicity at 70.5 h is -11.4%.

The values above are taken from ChEMBL document CHEMBL3507680, “University of Dundee, Gates Library screen for HepG2 cell viability”.
